# Measurements: paper PMC11058299, “Synthesis, molecular docking evaluation for LOX and COX-2 inhibition and determination of in-vivo analgesic potentials of aurone derivatives” (Heliyon, 2024)
# Where two headings read alike, the source gives them in different places.
# Experiments:
# [1] = tested on: opioid receptors (tail flicking latency); experiment: Assessment of opioid mechanism via tail immersion test with Naloxone; type: in vivo; details: mice; for Latency response 30 min: control 3.14 ± 0.31; for Latency response 60 min: control 3.17 ± 0.41; for Latency response 120 min: control 3.20 ± 0.29; for Latency response 90 min: control 3.31 ± 0.44
# Procedure: (§1) The cut-off time was set at 25 s, and the time taken for the mice to flick their tails out of the water was recorded at 30, 60, 90, and 120-min intervals. An increase in the time of tail immersion was compared to the control group to determine the analgesic effect of the tested drugs. The percentage of inhibition was calculated at the time interval showing the highest effect.
# To verify the involvement of the opioid mechanism, following the approach outlined in the published study. […] These derivatives were assessed for their potential opioid activity within the control, sample compounds and standard groups using the tail immersion test.
# COX-2 enzyme = target: T1, COX-2 enzyme (Homo sapiens, UniProt P35354); experiment: COX-2 inhibitory assay; type: biochemical
# T1 construct: purchased Sigma Aldrich
# T1 sequence (P35354 18-604): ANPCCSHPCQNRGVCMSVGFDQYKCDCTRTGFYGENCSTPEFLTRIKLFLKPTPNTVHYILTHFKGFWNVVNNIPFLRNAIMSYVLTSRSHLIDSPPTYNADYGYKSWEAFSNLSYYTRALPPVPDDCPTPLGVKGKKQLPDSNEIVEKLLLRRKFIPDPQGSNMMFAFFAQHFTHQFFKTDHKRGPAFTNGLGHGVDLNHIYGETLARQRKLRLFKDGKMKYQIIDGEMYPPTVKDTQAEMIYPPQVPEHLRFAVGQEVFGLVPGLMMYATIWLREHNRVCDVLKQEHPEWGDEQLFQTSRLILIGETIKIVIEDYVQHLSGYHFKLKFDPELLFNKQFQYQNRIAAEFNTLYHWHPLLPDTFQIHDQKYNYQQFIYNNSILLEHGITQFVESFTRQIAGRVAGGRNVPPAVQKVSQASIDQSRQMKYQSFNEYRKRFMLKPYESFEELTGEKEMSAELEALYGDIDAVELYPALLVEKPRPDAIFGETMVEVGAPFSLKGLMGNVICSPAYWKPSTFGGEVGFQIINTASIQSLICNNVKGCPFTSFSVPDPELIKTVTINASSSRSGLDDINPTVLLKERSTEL
# Procedure: COX-2 inhibition was measured spectrophotometrically at 550 nm after the formation of oxidized form of tetramethlenephenylenediamine (TMPD). This assay was conducted according to previously reported procedure. […] The reaction contained 10 μL COX-2 enzymes (100 μM in diluted in DMSO), 10 μL haem of 2.2 mM diluted in DMSO, tris buffers (pH. 8, 100 μl) and drug samples according to the above stated procedure. The reaction was started by the addition of freshly prepared TMPD and methanolic arachidonic acid (AA). Celecoxib is used as a reference drug in this assay. After 5 min of incubation at 25–28C, the absorbance was measured at 550 nm and inhibition was calculated.
# [2] = tested on: acetic acid induced writhing; experiment: Acetic acid induced writhing test; type: in vivo; details: mice
# Procedure: The animals were divided into various groups I-XVI consisting of 8 experimental animals for control, sample compounds (WE-1 to WE-7) and standard. Group I: Control, Group II-XV: WE-1 to WE-7 (sample compounds) at dose of 10 mg/kg and 20 mg/kg and Group XVI: Standard. The control (Group I) was given normal saline. Group II-XV received 10 mg/kg and 20 mg/kg of test sample (WE-1 to WE-7). […] The writhing test, following a previously established method, was conducted to assess the analgesic potential of the aurone derivatives. The mice were orally administered samples compounds (WE-1 to WE-7)and standard (Diclofenac sodium 10 mg/kg) 1 h before intraperitoneal administration 10 ml/kg of 1 % acetic acid. Five minutes after the acetic acid administration, the numbers of writhing episodes were counted for 10 min, and the percentage of inhibition was subsequently calculated.
# 5-LOX = target: T2, 5-LOX (Homo sapiens, UniProt P09917); experiment: LOX inhibitory assay; type: biochemical
# T2 sequence (P09917 1-674): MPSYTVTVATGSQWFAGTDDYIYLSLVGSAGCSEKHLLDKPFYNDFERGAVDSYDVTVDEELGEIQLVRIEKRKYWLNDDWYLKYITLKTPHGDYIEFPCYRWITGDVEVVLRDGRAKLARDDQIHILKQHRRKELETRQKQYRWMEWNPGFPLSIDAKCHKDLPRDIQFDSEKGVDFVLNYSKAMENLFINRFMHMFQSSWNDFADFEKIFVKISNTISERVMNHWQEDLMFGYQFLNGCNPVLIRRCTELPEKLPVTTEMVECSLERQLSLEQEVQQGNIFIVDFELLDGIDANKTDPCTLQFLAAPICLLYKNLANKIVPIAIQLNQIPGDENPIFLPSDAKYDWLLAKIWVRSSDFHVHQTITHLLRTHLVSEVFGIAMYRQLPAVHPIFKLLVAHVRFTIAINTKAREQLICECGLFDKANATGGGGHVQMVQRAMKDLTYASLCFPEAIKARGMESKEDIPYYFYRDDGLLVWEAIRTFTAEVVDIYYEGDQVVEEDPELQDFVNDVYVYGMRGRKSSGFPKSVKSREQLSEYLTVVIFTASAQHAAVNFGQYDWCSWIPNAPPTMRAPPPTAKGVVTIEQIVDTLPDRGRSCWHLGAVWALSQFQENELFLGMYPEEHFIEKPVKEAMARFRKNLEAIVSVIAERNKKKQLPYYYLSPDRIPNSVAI
# Procedure: The assay was performed according to previously reported procedure. […] Enzyme 5-LOX and DCFDA were incubated for 5 min. After the addition of the test compound, it was further incubated for 10 min. By the addition of substrate arachadonic acid and ATP, the reaction was initiated.
# [3] = tested on: formalin induced paw licking; experiment: Formalin induced paw licking test; type: in vivo; details: late phase, mice
# Procedure: The animals were divided into various groups I-XVI consisting of 8 experimental animals for control, sample compounds (WE-1 to WE-7) and standard. Group I: Control, Group II-XV: WE-1 to WE-7 (sample compounds) at dose of 10 mg/kg and 20 mg/kg and Group XVI: Standard. The control (Group I) was given normal saline. Group II-XV received 10 mg/kg and 20 mg/kg of test sample (WE-1 to WE-7). […] The acute peripheral and centrally mediated analgesic activity of aurone derivatives was evaluated using the formalin-induced pain method, as described. Samples compounds (WE-1 to WE-7) and a standard (Indomethacin 10 mg) were orally administered 30 min prior to 20 μl of 1 % formalin injection (prepared in 0.9 % saline) in right hind paw of the mice and immediately placed in a clear box to observe the animal's reaction. Paw licking or biting within 0–5 min indicated Phase 1, while animal reactions observed between 15 and 30 min indicated Phase 2. The number of paw licking or biting events was compared to the control group, and the percentage of inhibition was calculated.
# [4] = tested on: heat induced tail flicking latency; experiment: Tail immersion test; type: in vivo; details: mice
# Procedure: Group I: Control, Group II-XV: WE-1 to WE-7 (sample compounds) at dose of 10 mg/kg and 20 mg/kg and Group XVI: Standard. The control (Group I) was given normal saline. Group II-XV received 10 mg/kg and 20 mg/kg of test sample (WE-1 to WE-7).
# as §1
# [5] = Table 2, read-out: LOX (IC50 μM)
# [6] = as repeated in Table 4, read-out: Human LOX (IC50 μM)
SMILES,Latency response 30 min ([1]; 10 mg/kg + Naloxone 2 mg/kg),Latency response 60 min ([1]; 10 mg/kg + Naloxone 2 mg/kg),Latency response 120 min ([1]; 10 mg/kg + Naloxone 2 mg/kg),Latency response 90 min ([1]; 10 mg/kg + Naloxone 2 mg/kg),Latency response 30 min ([1]; 20 mg/kg + Naloxone 2 mg/kg),Latency response 60 min ([1]; 20 mg/kg + Naloxone 2 mg/kg),Latency response 120 min ([1]; 20 mg/kg + Naloxone 2 mg/kg),Latency response 90 min ([1]; 20 mg/kg + Naloxone 2 mg/kg),IC50 (COX-2 enzyme; Table 2),IC50 (COX-2 enzyme; as repeated in Table 4),IC50 (5-LOX; [5]),IC50 (5-LOX; [6]),"percentage inhibition of paw licking, Phase II ([3]; 20 mg/kg oral)",also measured
O=C1C(=Cc2ccc(F)cc2)Oc2ccccc21 [WE-7],3.48 ± 0.46,4.11 ± 0.48,3.40 ± 0.60,4.11 ± 0.40,3.50 ± 0.67,4.35 ± 0.61,3.51 ± 0.66,5.01 ± 0.60,0.63 µM,0.63 µM,0.74 µM,0.74 µM,over 60%,percent analgesic effect (inhibition of writhing) ([2]; 20 mg/kg oral): more than 60%
O=C1C(=Cc2ccc(Cl)cc2)Oc2ccccc21 [WE-2],3.61 ± 0.41,4.11 ± 0.40,3.19 ± 0.32,4.03 ± 0.41,3.70 ± 0.39,4.30 ± 0.51,3.80 ± 0.55,4.59 ± 0.60,0.82 µM,0.82 µM,0.86 µM,0.86 µM,over 60%,percent analgesic effect (inhibition of writhing) ([2]; 10 mg/kg oral): 63.44%; percent analgesic effect (inhibition of writhing) ([2]; 20 mg/kg oral): 64.94%
"COc1ccc2c(c1)c(CC(=O)O)c(C)n2C(=O)c1ccc(Cl)cc1 [indomethacin, Indomethacin, reference compound]",–,–,–,–,–,–,–,–,–,–,–,–,–,"percentage inhibition of paw licking, Phase II ([3]; 10 mg/kg oral): 81.85%"
O=Cc1ccc(C=C2Oc3ccccc3C2=O)cc1 [WE-6],–,–,–,–,–,–,–,–,1.13 µM,1.13 µM,1.17 µM,1.17 µM,–,–
O=C1C(=Cc2ccccc2)Oc2ccccc21 [WE-1],–,–,–,–,–,–,–,–,1.27 µM,1.27 µM,1.45 µM,1.45 µM,–,–
O=C(O)c1ccc(C=C2Oc3ccccc3C2=O)cc1 [WE-5],–,–,–,–,–,–,–,–,1.21 µM,1.21 µM,1.12 µM,1.12 µM,–,–
"O=C(O)Cc1ccccc1Nc1c(Cl)cccc1Cl [diclofenac sodium, Diclofenac Sodium, reference compound]",–,–,–,–,–,–,–,–,–,–,–,–,–,"percent analgesic effect (inhibition of writhing) ([2]; 10 mg/kg oral): 84.90%; number of writhing ([2]; 10 mg/kg oral, mean ± SEM, control 61.22 ± 3.90): 9.24 ± 1.51"
"CN1CC[C@]23c4c5ccc(O)c4O[C@H]2[C@@H](O)C=C[C@H]3[C@H]1C5 [Morphine, reference compound]",–,–,–,–,–,–,–,–,–,–,–,–,–,"percentage inhibition of pain, tail immersion ([4]; 2 mg/kg oral): 85.42%"
"COc1cccc(C2(O)CCCCC2CN(C)C)c1 (stereo not shown) [Tramadol, reference compound]",3.53 ± 0.44,4.60 ± 0.59,3.48 ± 0.44,3.70 ± 0.48,–,–,–,–,–,–,–,–,–,"tail flicking latency ([4]; 10 mg/kg, after 90 min, without Naloxone): 17.74 ± 1.33"
COc1ccc(C=C2Oc3ccccc3C2=O)cc1 [WE-3],3.66 ± 0.41,4.60 ± 0.49,4.01 ± 0.61,4.71 ± 0.66,3.35 ± 0.49,4.76 ± 0.51,4.15 ± 0.56,5.14 ± 0.61,0.47 µM,0.47 µM,0.52 µM,0.52 µM,over 60%,"percentage inhibition of pain, tail immersion ([4]; 20 mg/kg oral, at interval of highest effect): 71.36%"
